# Like-named read-outs stand apart in the source and are kept apart here.
# How the values were obtained:
# EGFR (d746-750 C797S) = molecular target: T1, EGFR (d746-750 C797S) (Homo sapiens, UniProt P00533, C797S/DEL746-750); assay: Inhibition of EGFR (d746-750 C797S) biochemical enzymatic activity (HTRF); settings: EGFR Del19-C797S, 1 mM ATP, 1 h, room temperature, read-out: IC50 (nM) @Del19-C797S
# T1 construct: purchased signalchem
# How it was run: (§1)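 Recombinant kinases phosphorylated 1 μM biotinylated TK substrate with 1 mM ATP in buffer with 5 mM MgCl2, 1 mM MnCl2, 0.01% CHAPS, 1 mM DTT, 0.5% DMSO. Reaction ran 1 h at room temperature, stopped with EDTA-containing detection mix. HTRF 665/615 nm ratio gave IC50 via four-parameter logistic fit.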
# EGFR wild type = molecular target: T2, EGFR wild type (Homo sapiens, UniProt P00533); assay: Inhibition of EGFR wild type biochemical enzymatic activity (HTRF); settings: EGFR WT, 1 mM ATP, 1 h, room temperature, read-out: IC50 (nM) @WT
# T2 construct: purchased Carna Bio
# How it was run: as §1
# EGFR Exon19Del/T790M = molecular target: T3, EGFR Exon19Del/T790M (Homo sapiens, UniProt P00533, DEL746-750/T790M); assay: Inhibition of EGFR Exon19Del/T790M biochemical enzymatic activity (HTRF); settings: EGFR Del19-T790M, 1 mM ATP, 1 h, room temperature, read-out: IC50 (nM) @Del19-T790M
# T3 construct: purchased Carna Bio
# How it was run: as §1
# EGFR[T790M/C797S/L858R] = molecular target: T4, EGFR[T790M/C797S/L858R] (Homo sapiens, UniProt P00533, C797S/L858R/T790M); assay: Inhibition of EGFR[T790M/C797S/L858R] biochemical enzymatic activity (HTRF); settings: EGFR T790M-C797S-L858R, 1 mM ATP, 1 h, room temperature, read-out: IC50 (nM) @T790M- C797S - L858R
# T4 construct: purchased Carna Bio
# How it was run: as §1
# EGFR Exon19Del = molecular target: T5, EGFR Exon19Del (Homo sapiens, UniProt P00533, DEL746-750); assay: Inhibition of EGFR Exon19Del biochemical enzymatic activity (HTRF); settings: EGFR Del19, 1 mM ATP, 1 h, room temperature, read-out: IC50 @Del19
# T5 construct: purchased Carna Bio
# How it was run: as §1
# EGFR (C797S L858R) = molecular target: T6, EGFR (C797S L858R) (Homo sapiens, UniProt P00533, C797S/L858R); assay: Inhibition of EGFR (C797S L858R) biochemical enzymatic activity (HTRF); settings: EGFR L858-C797S, 1 mM ATP, 1 h, room temperature, read-out: IC50 (nM) @L858-C797S
# T6 construct: purchased signalchem
# How it was run: as §1
# [1] = tested on: Ba/F3 cells expressing EGFR mutations; assay: Cell proliferation assay, Ba/F3 cells expressing EGFR mutations (CellTiter-Glo, 72 hours); format: cell-based; settings: CellTiter-Glo
# How it was run: (§2)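 Cells are exposed to graded compound concentrations after overnight plating, using 500 PC-9 or 5000 Ba/F3 per well. Baseline-subtracted viability is compared with vehicle to give percent proliferation, then GI50.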
# EGFR L858R/T790M = molecular target: T7, EGFR L858R/T790M (Homo sapiens, UniProt P00533, L858R/T790M); assay: Inhibition of EGFR L858R/T790M biochemical enzymatic activity (HTRF); settings: EGFR L858R-T790M, 1 mM ATP, 1 h, room temperature, read-out: IC50 (nM) @L858R-T790M
# T7 construct: purchased Carna Bio
# How it was run: as §1
# EGFR L858R = molecular target: T8, EGFR L858R (Homo sapiens, UniProt P00533, L858R); assay: Inhibition of EGFR L858R biochemical enzymatic activity (HTRF); settings: 1 mM ATP, 1 h, room temperature, read-out: IC50 (nM) @L858R
# T8 construct: purchased Carna Bio
# How it was run: as §1
# PC-9 = assay: Cell proliferation assay, PC-9 cells (CellTiter-Glo, 72 hours); format: cell-based; settings: PC9 cells, CellTiter-Glo, read-out: PC9 GI50
# How it was run: as §2
# A-431 = assay: Cell proliferation GI50, A-431 cells (Table 6); format: cell-based
# [2] = molecular target: T9, EGFR[T790M/C797S/d746-750] (Homo sapiens, UniProt P00533, C797S/DEL746-750/T790M); assay: Inhibition of EGFR[T790M/C797S/d746-750] biochemical enzymatic activity (HTRF); settings: EGFR T790M-C797S-Del19, 1 mM ATP, 1 h, room temperature, read-out: IC50 (nM) @T790M - C797S - Del19
# T9 construct: purchased Carna Bio
# How it was run: as §1
# [3] = Mus musculus, BaF3, 72 h, BaF3 cells, EGFR DEL19-C797S, read-out: DEL19-C797S/BaF3 GI50
# [4] = Mus musculus, BaF3, 72 h, BaF3 cells, EGFR DEL19-T790-C797S, read-out: DEL19-T790-C797S/BaF3 GI50
# [5] = Mus musculus, BaF3, 72 h, BaF3 cells, EGFR L858R, read-out: L858R/BaF3 GI50
# [6] = Mus musculus, BaF3, 72 h, BaF3 cells, EGFR L858R-C797S, read-out: L858R-C797S/BaF3 GI50
# [7] = Mus musculus, BaF3, 72 h, BaF3 cells, EGFR L858R-T790-C797S, read-out: L858R-T790-C797S/BaF3 GI50
# [8] = Mus musculus, BaF3, 72 h, BaF3 cells, EGFR L858R-T790M, read-out: L858R-T790M/BaF3 GI50
# [9] = Mus musculus, BaF3, 72 h, EGFR DEL19-T790M, read-out: DEL19-T790M GI50
# [10] = Homo sapiens, A-431, A-431 cells
# [11] = BaF3 cells, EGFR DEL19-C797S, read-out: DEL19-C797S/BaF3 GI50
# [12] = BaF3 cells, EGFR DEL19-T790-C797S, read-out: DEL19-T790-C797S/BaF3 GI50
# [13] = BaF3 cells, EGFR L858R, read-out: L858R/BaF3 GI50
# [14] = BaF3 cells, EGFR L858R-C797S, read-out: L858R-C797S/BaF3 GI50
# [15] = BaF3 cells, EGFR L858R-T790-C797S, read-out: L858R-T790-C797S/BaF3 GI50
# [16] = BaF3 cells, EGFR L858R-T790M, read-out: L858R-T790M/BaF3 GI50
# [17] = EGFR DEL19-T790M, read-out: DEL19-T790M GI50
# T3 sequence (P00533 with tags, fused parts or gaps DEL746-750/T790M limits assumed): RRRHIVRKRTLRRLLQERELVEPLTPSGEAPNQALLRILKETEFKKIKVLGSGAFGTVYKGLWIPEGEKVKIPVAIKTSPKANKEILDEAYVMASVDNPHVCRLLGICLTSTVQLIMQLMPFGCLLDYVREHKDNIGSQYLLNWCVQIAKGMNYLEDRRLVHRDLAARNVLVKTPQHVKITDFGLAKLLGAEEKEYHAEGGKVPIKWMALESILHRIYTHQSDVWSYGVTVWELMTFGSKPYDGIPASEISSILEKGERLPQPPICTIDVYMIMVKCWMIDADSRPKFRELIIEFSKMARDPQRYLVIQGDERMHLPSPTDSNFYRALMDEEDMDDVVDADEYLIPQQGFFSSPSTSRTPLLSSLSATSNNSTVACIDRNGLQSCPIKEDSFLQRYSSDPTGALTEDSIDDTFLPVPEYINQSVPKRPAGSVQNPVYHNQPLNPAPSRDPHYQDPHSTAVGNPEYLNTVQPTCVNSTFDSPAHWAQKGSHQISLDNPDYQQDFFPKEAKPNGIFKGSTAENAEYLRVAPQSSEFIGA
# T2 sequence (P00533 25-1210): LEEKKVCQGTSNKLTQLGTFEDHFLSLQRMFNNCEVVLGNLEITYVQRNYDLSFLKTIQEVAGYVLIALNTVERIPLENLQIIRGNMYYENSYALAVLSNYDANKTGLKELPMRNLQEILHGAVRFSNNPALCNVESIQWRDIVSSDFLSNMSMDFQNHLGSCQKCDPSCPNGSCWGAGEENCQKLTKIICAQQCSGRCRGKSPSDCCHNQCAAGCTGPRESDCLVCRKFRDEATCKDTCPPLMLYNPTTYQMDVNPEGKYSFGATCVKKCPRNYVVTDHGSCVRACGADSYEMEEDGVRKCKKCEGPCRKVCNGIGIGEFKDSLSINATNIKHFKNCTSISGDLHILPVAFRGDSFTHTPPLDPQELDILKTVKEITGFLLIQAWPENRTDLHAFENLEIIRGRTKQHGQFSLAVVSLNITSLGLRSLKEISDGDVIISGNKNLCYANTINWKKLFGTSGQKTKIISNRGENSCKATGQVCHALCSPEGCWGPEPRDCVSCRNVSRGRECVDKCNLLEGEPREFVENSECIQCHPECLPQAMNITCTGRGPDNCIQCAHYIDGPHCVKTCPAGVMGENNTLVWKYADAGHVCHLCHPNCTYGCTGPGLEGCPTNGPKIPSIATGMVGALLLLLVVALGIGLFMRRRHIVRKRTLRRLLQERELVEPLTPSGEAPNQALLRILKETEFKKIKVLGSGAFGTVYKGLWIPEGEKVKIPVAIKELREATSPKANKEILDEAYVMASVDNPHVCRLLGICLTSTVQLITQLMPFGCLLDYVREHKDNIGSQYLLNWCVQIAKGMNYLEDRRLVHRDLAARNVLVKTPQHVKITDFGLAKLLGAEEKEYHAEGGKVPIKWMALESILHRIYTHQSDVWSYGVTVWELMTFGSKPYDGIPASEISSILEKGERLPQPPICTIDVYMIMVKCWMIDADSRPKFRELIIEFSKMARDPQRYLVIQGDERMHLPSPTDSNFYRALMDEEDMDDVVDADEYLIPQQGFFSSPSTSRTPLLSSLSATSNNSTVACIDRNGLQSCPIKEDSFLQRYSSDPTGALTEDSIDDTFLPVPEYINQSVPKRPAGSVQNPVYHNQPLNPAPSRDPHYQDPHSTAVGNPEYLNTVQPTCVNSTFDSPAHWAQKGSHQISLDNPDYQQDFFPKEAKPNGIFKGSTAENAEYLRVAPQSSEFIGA
# T6 sequence (P00533 25-1210 C797S/L858R): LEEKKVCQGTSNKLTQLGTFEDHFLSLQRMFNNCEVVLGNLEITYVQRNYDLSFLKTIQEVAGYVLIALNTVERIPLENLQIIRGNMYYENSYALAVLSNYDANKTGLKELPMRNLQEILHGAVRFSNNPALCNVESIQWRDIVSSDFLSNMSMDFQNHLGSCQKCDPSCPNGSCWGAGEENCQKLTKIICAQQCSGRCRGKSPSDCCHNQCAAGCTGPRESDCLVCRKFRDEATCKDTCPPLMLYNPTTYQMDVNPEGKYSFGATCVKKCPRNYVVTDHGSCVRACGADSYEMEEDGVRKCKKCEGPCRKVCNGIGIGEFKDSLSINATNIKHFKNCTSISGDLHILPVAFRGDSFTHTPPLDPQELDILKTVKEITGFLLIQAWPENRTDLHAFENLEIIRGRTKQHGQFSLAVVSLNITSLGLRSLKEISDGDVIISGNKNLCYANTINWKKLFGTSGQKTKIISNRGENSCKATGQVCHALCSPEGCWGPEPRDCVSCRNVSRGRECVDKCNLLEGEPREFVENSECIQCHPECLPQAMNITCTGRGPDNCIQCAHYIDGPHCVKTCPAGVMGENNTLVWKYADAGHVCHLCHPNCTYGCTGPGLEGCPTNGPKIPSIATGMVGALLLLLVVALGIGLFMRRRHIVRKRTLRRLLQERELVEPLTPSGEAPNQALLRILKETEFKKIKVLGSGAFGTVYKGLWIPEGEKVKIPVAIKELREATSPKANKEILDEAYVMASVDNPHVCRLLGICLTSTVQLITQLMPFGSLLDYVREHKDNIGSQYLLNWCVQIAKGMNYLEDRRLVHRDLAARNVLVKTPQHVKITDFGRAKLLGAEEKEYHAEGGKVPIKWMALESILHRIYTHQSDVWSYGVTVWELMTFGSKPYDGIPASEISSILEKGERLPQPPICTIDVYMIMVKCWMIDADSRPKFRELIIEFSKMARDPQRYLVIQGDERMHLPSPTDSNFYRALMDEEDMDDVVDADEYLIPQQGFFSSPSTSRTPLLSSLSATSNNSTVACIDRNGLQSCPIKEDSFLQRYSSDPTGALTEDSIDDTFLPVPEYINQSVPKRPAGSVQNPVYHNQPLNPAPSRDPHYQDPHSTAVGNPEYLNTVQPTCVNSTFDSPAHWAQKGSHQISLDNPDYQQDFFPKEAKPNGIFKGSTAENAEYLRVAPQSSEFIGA
# T5 sequence (P00533 with tags, fused parts or gaps DEL746-750 limits assumed): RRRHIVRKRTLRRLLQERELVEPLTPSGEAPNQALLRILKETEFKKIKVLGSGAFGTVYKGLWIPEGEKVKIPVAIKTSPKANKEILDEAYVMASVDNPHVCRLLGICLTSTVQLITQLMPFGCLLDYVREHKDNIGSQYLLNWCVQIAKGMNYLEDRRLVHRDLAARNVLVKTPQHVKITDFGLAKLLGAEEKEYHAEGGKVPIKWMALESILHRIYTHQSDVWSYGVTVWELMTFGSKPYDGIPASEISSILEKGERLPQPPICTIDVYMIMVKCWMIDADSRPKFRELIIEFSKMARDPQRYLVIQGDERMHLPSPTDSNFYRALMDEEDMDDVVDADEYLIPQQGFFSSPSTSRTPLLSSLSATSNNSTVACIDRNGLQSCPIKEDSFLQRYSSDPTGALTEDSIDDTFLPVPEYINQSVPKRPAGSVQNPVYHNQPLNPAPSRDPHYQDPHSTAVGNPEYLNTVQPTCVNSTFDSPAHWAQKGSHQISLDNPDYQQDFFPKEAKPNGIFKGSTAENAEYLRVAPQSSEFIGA
# T9 sequence (P00533 with tags, fused parts or gaps DEL746-750/T790M/C797S limits assumed): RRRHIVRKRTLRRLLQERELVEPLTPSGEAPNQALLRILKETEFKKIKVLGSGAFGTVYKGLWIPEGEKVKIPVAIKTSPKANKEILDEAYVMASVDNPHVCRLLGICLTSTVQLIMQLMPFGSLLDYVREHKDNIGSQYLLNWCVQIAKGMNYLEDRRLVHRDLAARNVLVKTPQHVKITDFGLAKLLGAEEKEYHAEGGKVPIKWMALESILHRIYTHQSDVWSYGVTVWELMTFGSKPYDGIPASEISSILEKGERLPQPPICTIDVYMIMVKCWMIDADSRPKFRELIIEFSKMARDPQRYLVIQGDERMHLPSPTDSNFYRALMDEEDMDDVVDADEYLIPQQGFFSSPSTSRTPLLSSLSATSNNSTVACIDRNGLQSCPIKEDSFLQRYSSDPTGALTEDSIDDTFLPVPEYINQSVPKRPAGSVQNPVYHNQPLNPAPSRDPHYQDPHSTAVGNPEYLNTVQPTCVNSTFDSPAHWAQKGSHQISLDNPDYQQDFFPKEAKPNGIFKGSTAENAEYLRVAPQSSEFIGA
# T1 sequence (P00533 with tags, fused parts or gaps DEL746-750/C797S limits assumed): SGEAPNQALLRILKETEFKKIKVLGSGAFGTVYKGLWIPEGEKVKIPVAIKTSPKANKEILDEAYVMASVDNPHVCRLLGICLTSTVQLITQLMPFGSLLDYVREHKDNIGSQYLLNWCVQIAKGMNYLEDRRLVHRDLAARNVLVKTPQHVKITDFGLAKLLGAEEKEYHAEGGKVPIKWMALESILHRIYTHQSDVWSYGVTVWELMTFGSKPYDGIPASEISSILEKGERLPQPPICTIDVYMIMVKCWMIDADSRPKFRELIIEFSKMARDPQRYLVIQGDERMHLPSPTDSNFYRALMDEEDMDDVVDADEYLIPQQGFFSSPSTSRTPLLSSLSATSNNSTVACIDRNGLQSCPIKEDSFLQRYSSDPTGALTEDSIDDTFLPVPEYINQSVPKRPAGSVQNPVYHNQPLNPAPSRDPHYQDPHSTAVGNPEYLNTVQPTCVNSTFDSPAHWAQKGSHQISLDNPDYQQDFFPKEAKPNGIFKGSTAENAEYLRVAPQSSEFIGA
SMILES,IC50 (EGFR (d746-750 C797S)) [nM],IC50 (EGFR wild type) [nM],IC50 (EGFR Exon19Del/T790M) [nM],IC50 (EGFR[T790M/C797S/L858R]) [nM],IC50 (EGFR Exon19Del) [nM],IC50 (EGFR (C797S L858R)) [nM],"GI50 [1, 3] [nM]","GI50 [1, 4] [nM]","GI50 [1, 5] [nM]","GI50 [1, 6] [nM]","GI50 [1, 7] [nM]","GI50 [1, 8] [nM]","GI50 [1, 9] [nM]",IC50 (EGFR L858R/T790M) [nM],IC50 (EGFR L858R) [nM],"GI50 (PC-9; Homo sapiens, PC-9, 72 h) [nM]",GI50 (A-431; [10]) [nM],IC50 [2] [nM],"GI50 [1, 12] [nM]","GI50 [1, 13] [nM]",also measured
"C[C@@H]1CCCOc2c(cnn2C)-c2cc(cn(C)c2=O)C(=O)Nc2nc3ccc(N4CCN(C)CC4)cc3n2C1 [Example A25, (11R)-5,11,26-trimethyl-16-(4-methylpiperazin-1-yl)-7-oxa-4,5,13,20,22,26-hexaazapentacyclo[22.3.1.0^{2,6}.0^{13,21}.0^{14,19}]octacosa-1(28),2(6),3,14,16,18,20,24-octaene-23,27-dione]",1,323,1.6,1.6,1.6,6,1.4,13,2.4,9.3,5.6,16,9.2,2,24,12,486,1.6,,,
"Cn1ncc2c1OCCN1CC3CCC(C3)(C1)n1c(nc3ccccc31)NC(=O)c1cc-2c(=O)n(C)c1 (stereo not shown) [Example A61B, 15,21-Dimethyl-23-oxa-2,9,11,15,20,21,26-heptaazaheptacyclo[24.4.1.1^{1,28}.1^{13,17}.0^{2,10}.0^{3,8}.0^{18,22}]tritriaconta-3,5,7,9,13,17(33),18(22),19-octaene-12,16-dione]",2.5,2420,1.8,17,6.1,146,1.7,11,21,22,16,55,9.9,8,224,29,1790,1.7,,,
C[C@@H]1CCCOc2c(cnn2C)-c2cc(cn(C)c2=O)C(=O)Nc2nc3ccc(N4CC5(CCN(C)CC5(F)F)C4)cc3n2C1 [Example A56],5.5,501,17,19,9.1,22,3.4,11,12,12,10,26,17,32,35,52,436,16,,,
"CN1CC2(CCN(c3ccc4nc5n(c4c3)C34CCC(CN(CCOc6c(cnn6C)-c6cc(cn(C)c6=O)C(=O)N5)C3)C4)C2)C1 (single isomer, unassigned) [Example A73B]",1.4,13,2.2,1.9,1.3,2.9,,,,,,,,1.9,4,,1070,2.1,1.9,1.8,"GI50 [1, 11]: 0.54 nM; GI50 [1, 14]: 3.5 nM; GI50 [1, 15]: 1.9 nM; GI50 [1, 16]: 8 nM; GI50 [1, 17]: 1.5 nM; GI50 (PC-9): 7.3 nM"
"CN(C)C1CCN(c2ccc3nc4n(c3c2)C23CCC(CN(CCOc5c(cnn5C)-c5cc(cn(C)c5=O)C(=O)N4)C2)C3)CC1(F)F (single isomer, unassigned) [Example A97A]",850,> 5000,> 5000,> 5000,1190,3950,,,,,,,,> 5000,3030,,,> 5000,527,129,"GI50 [1, 11]: 102 nM; GI50 [1, 14]: 325 nM; GI50 [1, 15]: 124 nM; GI50 [1, 16]: 1000 nM; GI50 [1, 17]: 459 nM; GI50 (PC-9): 763 nM; GI50 (A-431; A-431 cells): 5790 nM"
"Cn1ncc2c1OCCN1CC3CCC(C3)(C1)n1c(nc3ccc(N4CCC(N5CC(F)C5)C4)cc31)NC(=O)c1cc-2c(=O)n(C)c1 (single isomer, unassigned) [Example A94B, 5-[3-(3-Fluoroazetidin-1-yl)pyrrolidin-1-yl]-15,21-dimethyl-23-oxa-2,9,11,15,20,21,26-heptaazaheptacyclo[24.4.1.1^{1,28}.1^{13,17}.0^{2,10}.0^{3,8}.0^{18,22}]tritriaconta-3,5,7,9,13,17(33),18(22),19-octaene-12,16-dione]",6.1,235,11,9.5,5.2,20,,,,,,,,11,29,,,8.4,4.5,5.1,"GI50 [1, 15]: 7.7 nM; GI50 [1, 16]: 14 nM; GI50 [1, 17]: 3.3 nM; GI50 (PC-9): 35 nM; GI50 (A-431; A-431 cells): 2880 nM"
